Entries after “also recorded” stand apart in the source; their conditions may differ. Structures can show the parent of a compound that is named as a salt.
Experiments:
[1] = molecular target: T1, adenosine kinase (AK) (Mus musculus, UniProt P55264); assay: NRH-induced NAD+ synthesis under adenosine kinase inhibition; assay type: cell-based; set-up: effect of AK inhibitor on the action of NRH (NAD+ synthesis): dose or concentration left out as unconfirmed; details: for effect of AK inhibitor on the action of NRH (NAD+ synthesis): AML12 cells, inhibitor 1 hour prior to NRH (5-IT), NAD+ 1 hour later
T1 construct: endogenous in cells; host or cells: AML12 cells
Procedure: FIG. 4. […] AML12 cells were treated with an adenosine kinase inhibitor (5-IT; […]) for 1 hour prior to NRH treatment at the doses indicated. Then, 1 hour later, acidic extracts were obtained to measure NAD^+ levels. All values in the figure are expressed as mean+/−SEM of 3 independent experiments. * indicates statistical difference at p<0.05 vs. the respective vehicle treated group.

[2] = tested on: NRK1; assay: NAD+ levels in primary hepatocytes from control or NRK1 knockout mice; assay type: cell-based; details: 1 hour of treatment
Source text: (§1) The action of NRH was also NAMPT-independent, based on experiments using FK866, a NAMPT inhibitor. If NRH led to NAD+ synthesis via the formation of NMNH, this hypothetical path would require the phosphorylation of NRH into NMNH. Given the essential and rate-limiting role of NRK1 in NR phosphorylation, we wondered whether the ability of NRH to boost NAD+ levels was NRK1 dependent. To answer this question, we evaluated NRH action in primary hepatocytes from either control or NRK1 knockout (NRK1KO) mice. […] Further, they rule out the possibility that NRH-induced NAD+ […] is driven by NRH oxidation into NR.

[3] = Stability in isolated mouse plasma; assay type: in vitro ADME; details: for generation of NAM in plasma / level of spiked compound in plasma: isolated mouse plasma, 2 h of incubation
Source text: (§2) Levels of NRH and other NAD-related metabolites in biological samples were obtained by using a cold liquid-liquid extraction using a mixture of methanol:water:chloroform in 5:3:5 (v/v), from which the polar phase was recovered for hydrophilic interaction ultra-high performance liquid chromatography mass spectrometry (UHPLC-MS) analysis. The UHPLC consisted of a binary pump, a cooled autosampler, and a column oven (DIONEX Ultimate 3000 UHPLC+ Focused, Thermo Scientific), connected to a triple quadrupole spectrometer (TSQ Vantage, Thermo Scientific) equipped with a heated electrospray ionisation (H-ESI) source. Of each sample, 2 μL were injected into the analytical column (2.1 mm×150 mm, 5 μm pore size, 200 Å HILICON iHILIC®-Fusion(P)), guarded by a pre-column (2.1 mm×20 mm, 200 Å HILICON iHILIC®-Fusion(P) Guard Kit) operating at 35° C. The mobile phase (10 mM ammonium acetate at pH 9, A, and acetonitrile, B) was pumped at 0.25 mL/min flow rate over a linear gradient of decreasing organic solvent (0.5-16 min, 90-25% B), followed by re-equilibration for a total run time of 30 min. The MS operated in positive mode at 3500 V with multiple reaction monitoring (MRM). The software Xcalibur v4.1.31.9 (Thermo Scientific) was used for instrument control, data acquisition and processing. Retention time and mass detection was confirmed by authentic standards.
(§3) NR degradation to NAM has been proposed as a limitation for its pharmacological efficacy. To evaluate whether NRH was also susceptible to degradation to NAM, we spiked NRH or NR in isolated mouse plasma. […] We also tested the stability of NRH in other matrixes. […] Finally, we also certified NRH stability in water (pH=7, at room temperature) for 48 h.

[4] = Oral gavage in mice: hepatic NAD+ and plasma metabolites; assay type: in vivo; details: for administered compound in plasma: 1 h after oral administration
Procedure: 8 week-old C57BI/6NTac mice were orally gavaged with either saline (as vehicle), NR (500 mg/kg) or NRH (500 mg/kg). After 1 hour, liver, skeletal muscle and kidney NAD levels were evaluated. All results are expressed as mean+/−SEM of n=5 mice per group. * indicates statistical difference at p<0.05 vs. vs. saline-treated mice. # indicates statistical difference at p<0.05 vs. NR treated mice.
as §2
Oral administration of NRH led to very similar results to those observed after IP administration. […] NRH was detectable in plasma 1 h after oral administration. In contrast, NR levels were undetectable at 1 h after NR administration.

[5] = Intraperitoneal injection in mice: tissue NAD+ and circulating metabolites; assay type: in vivo; details: for NAM levels in circulation / NAD+ levels in kidney / NAD+ levels in liver / NAD+ levels in muscle: IP 500 mg/kg; for NAD+ levels in kidney / NAD+ levels in liver / NAD+ levels in muscle: after 1 h
Source text: as §2
The above results prompted us to test whether NRH could act as an effective NAD+ precursor in vivo. For this, we first intraperitoneally (IP) injected mice with either NR or NRH (500 mg/kg). […] Importantly, NRH was detectable in circulation after IP injection.

[6] = tested on: NAD+ synthesis; assay: Intracellular NAD+ related metabolites after treatment (UHPLC-MS); assay type: cell-based; details: for intracellular detection of NRH and NMNH: 5 minutes after treatment
Source text: as §2
A path in which NRH would be converted to NMNH, then to NADH and this would be finally oxidized to NAD+.

[7] = Oral gavage in mice: NRH levels in tissues; assay type: in vivo; details: 2 hours after gavage (250 mg/kg)
Procedure: 8 week-old C57BI/6NTac mice were orally gavaged with either saline (as vehicle), and NRH (250 mg/kg). After 2 hours, liver, skeletal muscle and kidney NRH levels were evaluated. All results are expressed as mean+/−SEM of n=4 mice per group, as areas under the signal by LC-MS analysis, corrected by total protein amount of tissue.
as §2

[8] = molecular target: T2, NAMPT (Mus musculus, UniProt Q99KQ4); assay: NRH action in presence of NAMPT inhibitor FK866; assay type: cell-based; details: with FK866, a NAMPT inhibitor
T2 construct: endogenous in cells
Source text: as §1

[9] = tested on: 3T3 fibroblasts; assay: NAD+ levels in 3T3 fibroblasts after NRH treatment; assay type: cell-based
Procedure: (§4) The ability of NRH to potently increase NAD+ was tested as well in other cell type models.

[10] = tested on: C2C12 myotubes; assay: NAD+ levels in C2C12 myotubes after NRH treatment; assay type: cell-based
Procedure: as §4

[11] = Stability in FBS supplemented media; assay type: in vitro ADME
Procedure: as §3

[12] = tested on: INS1-cells; assay: NAD+ levels in INS1-cells after NRH treatment; assay type: cell-based
Procedure: as §4

[13] = tested on: AML12 hepatocytes; assay: Intracellular NAD+ levels in AML12 hepatocytes (dose-response and time course); assay type: cell-based
Procedure: Starting at levels at a concentration of 10 μM, NRH achieved similar increases in intracellular NAD+ levels to those reached with NR at 50-fold higher concentrations. NRH achieved maximal effects on NAD+ synthesis around the millimolar range, managing to increase intracellular NAD+ levels by more than 10-fold.
NRH actions were also extremely fast, as significant increases in NAD+ levels were observed within 5 minutes after NRH treatment.
Even at such relatively low dose, NRH achieved similar increases in intracellular NAD+ levels to those reached with NR at 50-fold higher concentrations. NRH achieved maximal effects on NAD+ synthesis around the millimolar range, managing to increase intracellular NAD+ levels by more than 10-fold.
NRH actions were also extremely fast (FIG. 3), as significant increases in NAD+ levels were observed within 5 minutes after NRH treatment.

[14] = Stability in water; assay type: physicochemical; details: pH=7, room temperature
Procedure: as §3

[15] = tested on: equilibrative nucleoside transporters (ENTs); assay: NRH as extracellular NAD+ precursor under blockage of ENT-mediated transport (NBTI); assay type: cell-based; details: in the presence of NBTI
Source text: In order to understand the exact path by which NRH synthesizes NAD+, we initially evaluated whether NRH, could be transported into the cell by equilibrative nucleoside transporters (ENTs).

[16] = tested on: NMNAT; assay: NRH-induced NAD+ synthesis under NMNAT inhibition (gallotannin); assay type: cell-based
Source text: As a follow-up step, NMNAT enzymes could catalyze the transition from NMNH to NADH. […] Yet, part of the NRH action remained after gallotannin treatment when NRH was used at maximal doses.

T1 sequence (P55264 whole entry): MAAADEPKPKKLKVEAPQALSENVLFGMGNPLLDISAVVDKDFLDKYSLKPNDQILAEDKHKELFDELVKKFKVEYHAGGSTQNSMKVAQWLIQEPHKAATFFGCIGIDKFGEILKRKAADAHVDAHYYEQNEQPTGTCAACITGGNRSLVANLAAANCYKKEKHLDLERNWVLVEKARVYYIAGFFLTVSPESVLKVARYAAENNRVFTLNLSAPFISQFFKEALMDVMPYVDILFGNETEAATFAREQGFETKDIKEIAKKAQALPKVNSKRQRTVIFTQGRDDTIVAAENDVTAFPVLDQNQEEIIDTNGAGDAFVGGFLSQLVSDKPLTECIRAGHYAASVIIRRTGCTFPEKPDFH
T2 sequence (Q99KQ4 whole entry): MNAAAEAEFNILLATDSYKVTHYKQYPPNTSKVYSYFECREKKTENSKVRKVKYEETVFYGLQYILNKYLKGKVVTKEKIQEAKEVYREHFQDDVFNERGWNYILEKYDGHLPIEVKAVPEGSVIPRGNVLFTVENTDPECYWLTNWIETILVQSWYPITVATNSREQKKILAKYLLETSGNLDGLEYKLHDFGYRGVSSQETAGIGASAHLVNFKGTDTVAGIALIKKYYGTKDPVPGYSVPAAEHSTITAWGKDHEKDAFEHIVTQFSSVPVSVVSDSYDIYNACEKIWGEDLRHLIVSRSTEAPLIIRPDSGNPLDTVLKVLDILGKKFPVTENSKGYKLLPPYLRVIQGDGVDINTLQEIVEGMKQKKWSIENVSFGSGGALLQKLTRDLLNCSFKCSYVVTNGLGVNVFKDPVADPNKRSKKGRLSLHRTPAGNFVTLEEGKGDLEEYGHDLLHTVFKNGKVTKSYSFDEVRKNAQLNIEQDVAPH

For Nc1ncnc2c1c(I)cn2[C@@H]1O[C@H](CO)[C@@H](O)[C@H]1O [5-IT, 5-iodotubercidin], the “effect of AK inhibitor on the action of NRH (NAD+ synthesis)” value [1] was “fully ablated” and the “formation of NR and NMN after NRH treatment” value ([1]; with AK inhibitor) was “prevented”.
With Nc1ncnc2nc(-c3ccc(N4CCOCC4)nc3)cc(-c3cccc(Br)c3)c12 [ABT-702] the “effect of AK inhibitor on the action of NRH (NAD+ synthesis)” value [1] was “confirmed”.
In the case of NC(=O)c1ccc[n+]([C@@H]2O[C@H](CO)[C@@H](O)[C@H]2O)c1 [NR, 1-b-D-ribofuranosyl-3-pyridinecarboxamide salt, reference compound], the “NAD+ levels in NRK1KO derived primary hepatocytes” value [2] is reported as “failed to increase NAD+ levels”, the “generation of NAM in plasma” value [3] is reported as “increase in NAM” and the “level of spiked compound in plasma” value [3] is reported as “decayed”. The “administered compound in plasma” value [4] was “undetectable”, the “circulating NAM” value ([4]; oral administration) was “large increases” and the “NAM levels in circulation” value [5] was “highly increased”. For the same molecule, the “NAD+ levels in kidney” value [5] was “increased”, the “NAD+ levels in liver” value [5] was “increased” and the “NAD+ levels in muscle” value [5] was “increased”. For the same molecule, the “intracellular detection of NRH and NMNH” value [6] was “not”.
In the case of NC(=O)C1=CN([C@@H]2O[C@H](CO)[C@@H](O)[C@H]2O)C=CC1 [NRH, reduced nicotinamide riboside], the “NAD+ levels in NRK1KO derived primary hepatocytes” value [2] is reported as “not affected by NRK1 deficiency”, the NRH in kidney [7] is reported as “found intact, in high levels” and the NRH in liver [7] is reported as “found intact, in high levels”. The NRH in muscle [7] was “found intact, in high levels”, the “dependence of action on NAMPT” value [8] was “NAMPT-independent” and the “NR production in plasma” value ([3]; incubation in isolated plasma) was “did not lead to NR production”. The “generation of NAM in plasma” value [3] was “not generated; also recorded: did not significantly alter NAM levels”, the “level of spiked compound in plasma” value [3] was “remained stable” and the “NAD+ levels” value [9] was “highly elevated”. For the same molecule, the “NAD+ levels” value [10] was “highly elevated”, the “degradation to NAM in FBS supplemented media” value [11] was “did not degrade to NAM” and the “NAD+ levels” value [12] was “highly elevated”. For the same molecule, the “ability to increase intracellular NAD+ compared with NR” value ([13]; AML12 hepatocytes) was “better than NR; also recorded: superior to that of NR”, the “time to significant increase in NAD+ levels after treatment” value ([13]; AML12 hepatocytes (FIG. 3)) was no more than 5 min and the “increase of intracellular NAD+ levels (maximal effect)” value ([13]; AML12 hepatocytes, around the millimolar range) was “more than 10 fold”. For the same molecule, the “concentration at which NAD+ levels were significantly increased” value ([13]; AML12 hepatocytes, dose-response (FIG. 2)) was 10 µM, the “fold higher NR concentration needed for similar increase in intracellular NAD+” value ([13]; NRH at 10 μM versus NR) was 50 fold and the “time for which stability in water was certified” value [14] was 48 h. The “generation of NMNH, NADH and NAD+ from NRH upon inhibition of AK” value ([1]; metabolomic analyses) was “fully blunted”, the “administered compound in plasma” value [4] was “detectable” and the “NRH concentration in plasma” value ([4]; after oral gavage) was 11.16 ± 1.74 µM. For the same molecule, the “effect on hepatic NAD+ levels compared with NR” value ([4]; oral administration) was “more potent effect”, the “capacity as extracellular NAD+ precursor under ENT blockage” value [15] was “largely lost its capacity” and the “NAM levels in circulation” value [5] was “only a very mild increase”. For the same molecule, the “NAD+ levels in kidney” value [5] was “increased”, the “NAD+ levels in liver” value [5] was “increased” and the “NAD+ levels in muscle” value [5] was “increased”. For the same molecule, the NRH in circulation ([5]; after IP injection) was “detectable”, the NR in circulation ([5]; after IP injection, compared with NR injection) was “much higher levels than those detected after NR injection itself” and the “intracellular detection of NRH and NMNH” value [6] was “could be detected”. For the same molecule, the “intracellular NR and NMN” value ([6]; after treatment, compared with NR) was “greater than that triggered by NR itself”.
With O=C(OC[C@H]1O[C@@H](OC(=O)c2cc(O)c(O)c(OC(=O)c3cc(O)c(O)c(O)c3)c2)[C@H](OC(=O)c2cc(O)c(O)c(OC(=O)c3cc(O)c(O)c(O)c3)c2)[C@@H](OC(=O)c2cc(O)c(O)c(OC(=O)c3cc(O)c(O)c(O)c3)c2)[C@@H]1OC(=O)c1cc(O)c(O)c(OC(=O)c2cc(O)c(O)c(O)c2)c1)c1cc(O)c(O)c(OC(=O)c2cc(O)c(O)c(O)c2)c1 [gallotannin] the “effect of NMNAT inhibitor on NAD+ synthesis after NRH treatment” value ([16]; NRH at maximal doses (0.5 mM)) was “largely compromised” and the “effect of NMNAT inhibitor on NRH action” value ([16]; NRH at submaximal doses) was “totally blocked”.

— patent publication US20220233565A1, “REDUCED NICOTINAMIDERIBOSIDES FOR TREATING/PREVENTING SKELETAL MUSCLE DISEASE” (SOCIETE DES PRODUITS NESTLE S.A., priority 2019, published 2022)
